Tests used:
[1] = system: Influenza strain A549 A/WSN/33 (H1N1); test: microbe, parasite or virus in culture; format: cell-based; conditions: Influenza A virus, A549, 20 h, A549 cells, influenza A/WSN/33 (H1N1), 20 hours incubation; read-out: A549_A(H1N1) EC50
in vitro = conditions: human, CC50, uninfected A549 cells, CellTiter-Glo

Row | Compound | EC50 [1] [nM] | CC50 (in vitro) [nM]
1 | O=C1c2c(O)c(=O)ccn2N2CN1C[C@@H]1C[C@H]1COc1ccccc1[C@@H]2c1ccccc1 (single isomer, unassigned) [Compound 80AB, (1a*R,8*S,17a*R)-14-hydroxy-8-phenyl-1a,2,17,17a-tetrahydro-1H,8H-9,16-methanobenzo[b]cyclopropa[k]pyrido[1,2-f][1]oxa[5,6,9]triazacyclotridecine-13,15-dione] | 66 | > 10000
2 | O=C1c2c(O)c(=O)ccn2N2CN1C[C@H]1C[C@@H]1COc1ccccc1[C@H]2c1ccccc1 (single isomer, unassigned) [Compound 80BA, (1a*S,8*R,17a*S)-14-hydroxy-8-phenyl-1a,2,17,17a-tetrahydro-1H,8H-9,16-methanobenzo[b]cyclopropa[k]pyrido[1,2-f][1]oxa[5,6,9]triazacyclotridecine-13,15-dione] | > 500 | > 1000
3 | O=C1c2c(O)c(=O)ccn2N2CN1C[C@@H]1C[C@H]1COc1ccccc1[C@H]2c1ccccc1 (single isomer, unassigned) [Compound 80BB, (1a*R,8*R,17a*R)-14-hydroxy-8-phenyl-1a,2,17,17a-tetrahydro-1H,8H-9,16-methanobenzo[b]cyclopropa[k]pyrido[1,2-f][1]oxa[5,6,9]triazacyclotridecine-13,15-dione] | > 500 | > 1000
4 | O=C1c2c(O)c(=O)ccn2N2CN1CCOC/C=C\c1cccc3c1[C@H]2c1ccccc1CC3 (single isomer, unassigned) [Compound 83A, (13Z,23b*R)-6-hydroxy-9,10,12,18,19,23b-hexahydro-1,8-methanobenzo[4,5]cyclohepta[1,2,3-qr]pyrido[1,2-c][9,2,3,6]benzoxatriazacyclotetradecine-5,7-dione] | > 500 | > 1000
5 | O=C1c2c(O)c(=O)ccn2N2CN1CCOC/C=C\c1cccc3c1[C@@H]2c1ccccc1CC3 (single isomer, unassigned) [Compound 83B, (13Z,23b*S)-6-hydroxy-9,10,12,18,19,23b-hexahydro-1,8-methanobenzo[4,5]cyclohepta[1,2,3-qr]pyrido[1,2-c][9,2,3,6]benzoxatriazacyclotetradecine-5,7-dione] | 6 | > 200
6 | O=C1c2c(O)c(=O)ccn2N2CN1CCC=CCOc1c(F)cccc1[C@@H]2c1ccccc1 (single isomer, unassigned) [Compound 84B, (19*S, E/Z)-4-fluoro-13-hydroxy-19-phenyl-9,10-dihydro-6H,19H-11,18-methanopyrido[2,1-i][1,7,10,11]benzoxatriazacyclotetradecine-12,14-dione] | 5 | > 200
7 | CC[C@H]1/C=C/COc2c(F)cccc2[C@@H](c2ccccc2)N2CN1C(=O)c1c(O)c(=O)ccn12 (single isomer, unassigned) [Compound 85AA, (9*S,18*R,E)-9-ethyl-4-fluoro-12-hydroxy-18-phenyl-6,9-dihydro-18H-10,17-methanobenzo[b]pyrido[1,2-f][1]oxa[5,6,9]triazacyclotridecine-11,13-dione] | 3 | > 200
8 | CC[C@@H]1/C=C/COc2c(F)cccc2[C@@H](c2ccccc2)N2CN1C(=O)c1c(O)c(=O)ccn12 (single isomer, unassigned) [Compound 85AB, (9*R,18*R,E)-9-ethyl-4-fluoro-12-hydroxy-18-phenyl-6,9-dihydro-18H-10,17-methanobenzo[b]pyrido[1,2-f][1]oxa[5,6,9]triazacyclotridecine-11,13-dione] | 2 | > 200
9 | CC[C@H]1/C=C/COc2c(F)cccc2[C@H](c2ccccc2)N2CN1C(=O)c1c(O)c(=O)ccn12 (single isomer, unassigned) [Compound 85BA, (9*S,18*S,E)-9-ethyl-4-fluoro-12-hydroxy-18-phenyl-6,9-dihydro-18H-10,17-methanobenzo[b]pyrido[1,2-f][1]oxa[5,6,9]triazacyclotridecine-11,13-dione] | > 500 | > 1000
10 | O=C1c2c(O)c(=O)ccn2N2CN1CCCC/C=C\c1cccc3c1[C@@H]2c1ccccc1CC3 (single isomer, unassigned) [Compound 86B, (13*Z,23b*R)-6-hydroxy-10,11,12,18,19,23b-hexahydro-9H-1,8-methanobenzo[4,5]cyclohepta[1,2,3-qr]pyrido[1,2-c][2,3,6]benzotriazacyclotetradecine-5,7-dione] | 27 | > 2000
11 | O=C1c2c(O)c(=O)ccn2N2CN1CC/C=C\COc1cc(F)c(F)c3c1[C@@H]2c1ccccc1SC3 (single isomer, unassigned) [Compound 88A, (23b*R, Z)-16,17-difluoro-6-hydroxy-10,13,18,23b-tetrahydro-9H-1,8-methano[1]benzothiepino[5,4,3-lm]pyrido[2,1-i][1,7,10,11]benzoxatriazacyclotetradecine-5,7-dione] | > 500 | > 1000
12 | O=C1c2c(O)c(=O)ccn2N2CN1CC/C=C\COc1cc(F)c(F)c3c1[C@H]2c1ccccc1SC3 (single isomer, unassigned) [Compound 88B, (23b*S, Z)-16,17-difluoro-6-hydroxy-10,13,18,23b-tetrahydro-9H-1,8-methano[1]benzothiepino[5,4,3-1m]pyrido[2,1-i][1,7,10,11]benzoxatriazacyclotetradecine-5,7-dione] | 1 | > 200
13 | O=C1c2c(O)c(=O)ccn2N2CN1CC/C=C/COc1cc(F)c(F)c3c1[C@@H]2c1ccccc1SC3 (single isomer, unassigned) [Compound 88C, (23b*R, E)-16,17-difluoro-6-hydroxy-10,13,18,23b-tetrahydro-9H-1,8-methano[1]benzothiepino[5,4,3-lm]pyrido[2,1-i][1,7,10,11]benzoxatriazacyclotetradecine-5,7-dione] | > 500 | > 1000
14 | O=C1c2c(O)c(=O)ccn2N2CN1CC/C=C/COc1cc(F)c(F)c3c1[C@H]2c1ccccc1SC3 (single isomer, unassigned) [Compound 88D, (23b*S, E)-16,17-difluoro-6-hydroxy-10,13,18,23b-tetrahydro-9H-1,8-methano[1]benzothiepino[5,4,3-lm]pyrido[2,1-i][1,7,10,11]benzoxatriazacyclotetradecine-5,7-dione] | 1 | > 100
15 | CC[C@H]1/C=C/COc2cc(F)ccc2[C@@H](c2ccccc2)N2CN1C(=O)c1c(O)c(=O)ccn12 (single isomer, unassigned) [Compound 89AA, (9*S,18*R,E)-9-ethyl-3-fluoro-12-hydroxy-18-phenyl-6,9-dihydro-18H-10,17-methanobenzo[b]pyrido[1,2-f][1]oxa[5,6,9]triazacyclotridecine-11,13-dione] | 10800 | 39300
16 | CC[C@@H]1/C=C/COc2cc(F)ccc2[C@H](c2ccccc2)N2CN1C(=O)c1c(O)c(=O)ccn12 (single isomer, unassigned) [Compound 89BB, (9*R,18*S,E)-9-ethyl-3-fluoro-12-hydroxy-18-phenyl-6,9-dihydro-18H-10,17-methanobenzo[b]pyrido[1,2-f][1]oxa[5,6,9]triazacyclotridecine-11,13-dione] | 3 | > 200
